This note sets out measurements from US20260317344A1, “EGFR INHIBITORS FOR TREATING DISEASE” (BLOSSOMHILL THERAPEUTICS, INC., priority 2023, published 2026).

The target in one test is EGFR (L858R/T790M/C797S) (Homo sapiens, UniProt P00533, C797S/L858R/T790M). As to the kind of experiment: HotSpot radiometric kinase assay, inhibition of EGFR L858R/T790M/C797S mutant. Type of test: biochemical. The conditions noted are these: 33P ATP, room temperature, 120 m. The method, then:
(§1) Biochemical Assays for inhibition of wild-type and mutant EGFRs
(§2) Briefly, specific kinase/substrate pairs along with required cofactors were prepared in reaction buffer; 20 mM HEPES pH 7.5, 10 mM […], 1 mM EGTA, 0.02% Brij35, 0.02 mg/ml BSA, 0.1 mM Na3VO4, 2 mM DTT, 1% DMSO. Compounds were delivered into the reaction, followed ~20 minutes later by addition of a mixture of ATP (Sigma, St. Louis MO) and ^33P ATP (Perkin Elmer, Waltham MA) to a final concentration of […]. Reactions were carried out at room temperature for 120 m, followed by spotting of the reactions onto P81 ion exchange filter paper (Whatman Inc., Piscataway, NJ). Unbound phosphate was removed by extensive washing of filters in 0.75% phosphoric acid. […] IC50 values and curve fits were obtained using Prism (GraphPad Software).

In another test the target is EGFR (D746-750) (Homo sapiens, UniProt P00533, DEL746-750). As to the kind of experiment: HotSpot radiometric kinase assay, inhibition of EGFR 746-750 mutant. Format: biochemical. The conditions noted are these: 33P ATP, room temperature, 120 m. The method, then: as §1, §2
The next test deals with EGFR (D746-750/C797S) (Homo sapiens, UniProt P00533, C797S/DEL746-750). The test is described as follows: HotSpot radiometric kinase assay, inhibition of EGFR 746-750/C797S mutant. The conditions noted are these: 33P ATP, room temperature, 120 m. Type of test: biochemical. As for the experimental part: as §1, §2
The next test has as its target EGFR (D770_N771insNPG) (Homo sapiens, UniProt P00533, INS770NPG). The test is described as follows: HotSpot radiometric kinase assay, inhibition of EGFR (D770_N771insNPG) mutant. Format: biochemical. The conditions noted are these: 33P ATP, room temperature, 120 m. The method, then: as §1, §2
In test [1] the target is T1, pEGFR, PC-9 cells (d746-750 EGFR) (Homo sapiens, UniProt P00533, DEL746-750).
T1 construct: pEGFR (Tyr1068) TR-FRET
The test is described as follows: Cellular EGFR phosphorylation assay (LANCE Ultra TR-FRET) in PC-9 cells. Type of test: cell-based. As to conditions: 4 hours at 37° C., read-out: PC-9 pEGFR IC50. The method, then:
(§3) Cellular EGFR Phosphorylation Assays
(§4) EGFR phosphorylation assays were conducted in NSCLC cells with EGFR activation mutations. PC-9 cells (purchased from Aldrich-Sigma) carry a Glu746-Ala750 deletion (d746-750) mutation in exon 19 of the EGFR gene and NCI-H1975 cells (purchased from ATCC) carry both L858R activation mutation and T790M gatekeeper mutation in the EGFR gene. A431 cells (purchased from ATCC) with amplification of wildtype EGFR, derived from epidermoid carcinoma, were used to measure the activity against wildtype EGFR. All cells were seeded in 96-well plates. For PC-9 and NCI-H1975 cells, 50 thousand cells were seeded per well. For A431 cells, 30 thousand cells were seeded per well. The next day, cells were exposed to compound for 4 hours at 37° C. and 5% CO2. Compounds were diluted in DMSO and added to cells in a 9-dose, 3-fold dilution, titration curve using TECAN d300e liquid dispenser. For A431 cells, 40 ng/mL of EGF was added to the media for the final 10 minutes of incubation. EGFR phosphorylation was measured using phospho-EGFR (Try1068) LANCE Ultra TR-FRET Detection Kit (TRF4015M) from PerkinElmer according to manufacturer's instructions. In brief, cells were lysed with 40 μL of lysis buffer plus 1× Halt protease and phosphatase inhibitor cocktail (Thermo 78441) and by incubation at room temperature for 1 h on a microplate shaker (350 rpm). 15 μ L of cell lysate was transferred to 384-well white plate and 5 μL of Europium- and ULight-labeled antibodies diluted in 1× detection buffer was added to each well. After 4-6 hours of incubation at room temperature, plates were then read on a TECAN Sparks multimode microplate reader. Data was analyzed using GraphPad Prism 9 (GraphPad Software, San Diego, CA) to obtain IC50 values.
In general terms: TR-FRET usually uses a lanthanide donor and a delayed reading to cut background.

Test [2] concerns the target T2, pEGFR, NCI-H1975 cells (L858R/T790M EGFR) (Homo sapiens, UniProt P00533, L858R/T790M).
T2 construct: pEGFR (Tyr1068) TR-FRET
The test is described as follows: Cellular EGFR phosphorylation assay (LANCE Ultra TR-FRET) in NCI-H1975 cells. Format: cell-based. As to conditions: 4 hours at 37° C., read-out: H1975 pEGFR IC50. As for the experimental part: as §3, §4

The target in test [3] is T3, pEGFR, A431 cells (wildtype EGFR) (Homo sapiens, UniProt P00533).
T3 construct: pEGFR (Tyr1068) TR-FRET
The test is described as follows: Cellular EGFR phosphorylation assay (LANCE Ultra TR-FRET) in A431 cells. Format: cell-based. As to conditions: 4 hours at 37° C., 40 ng/mL EGF for the final 10 minutes, read-out: A431 pEGFR IC50. The method, then:
as §3, §4

For the next test, the system named is PC-9 cells. As to the kind of experiment: 5-Day CellTiter Glo (CTG) cell proliferation assay, PC-9. Format: cell-based. As to conditions: Homo sapiens; PC-9 cells (d746-750 EGFR), 5-day CTG proliferation, 120 hours; read-out: PC-9 IC50. Put shortly: (§5)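 Proliferation of EGFR-driven NSCLC cells was scored as CellTiter-Glo 2.0 luminescence after a 5-day (120 h) incubation with compounds in 9 doses. IC50 values came from the dose-response curves.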
On the technique in general: ATP-based viability assays read luminescence as a measure of living cells.

The next test concerns NCI-H1975 cells. The test is described as follows: 5-Day CellTiter Glo (CTG) cell proliferation assay, NCI-H1975. Type of test: cell-based. The conditions noted are these: Homo sapiens; NCI-H1975 cells (L858R/T790M EGFR), 5-day CTG proliferation, 120 hours; read-out: H1975 IC50. Summed up: as §5
A further test concerns HCC827 cells. As to the kind of experiment: 5-Day CellTiter Glo (CTG) cell proliferation assay, HCC827. Format: cell-based. The conditions noted are these: Homo sapiens; HCC827 cells (d746-750 EGFR), 5-day CTG proliferation, 120 hours; read-out: HCC827 IC50. Put shortly:
as §5

What is called IC50 is the concentration that inhibits the measured activity by half.

T3 sequence (P00533 25-1210): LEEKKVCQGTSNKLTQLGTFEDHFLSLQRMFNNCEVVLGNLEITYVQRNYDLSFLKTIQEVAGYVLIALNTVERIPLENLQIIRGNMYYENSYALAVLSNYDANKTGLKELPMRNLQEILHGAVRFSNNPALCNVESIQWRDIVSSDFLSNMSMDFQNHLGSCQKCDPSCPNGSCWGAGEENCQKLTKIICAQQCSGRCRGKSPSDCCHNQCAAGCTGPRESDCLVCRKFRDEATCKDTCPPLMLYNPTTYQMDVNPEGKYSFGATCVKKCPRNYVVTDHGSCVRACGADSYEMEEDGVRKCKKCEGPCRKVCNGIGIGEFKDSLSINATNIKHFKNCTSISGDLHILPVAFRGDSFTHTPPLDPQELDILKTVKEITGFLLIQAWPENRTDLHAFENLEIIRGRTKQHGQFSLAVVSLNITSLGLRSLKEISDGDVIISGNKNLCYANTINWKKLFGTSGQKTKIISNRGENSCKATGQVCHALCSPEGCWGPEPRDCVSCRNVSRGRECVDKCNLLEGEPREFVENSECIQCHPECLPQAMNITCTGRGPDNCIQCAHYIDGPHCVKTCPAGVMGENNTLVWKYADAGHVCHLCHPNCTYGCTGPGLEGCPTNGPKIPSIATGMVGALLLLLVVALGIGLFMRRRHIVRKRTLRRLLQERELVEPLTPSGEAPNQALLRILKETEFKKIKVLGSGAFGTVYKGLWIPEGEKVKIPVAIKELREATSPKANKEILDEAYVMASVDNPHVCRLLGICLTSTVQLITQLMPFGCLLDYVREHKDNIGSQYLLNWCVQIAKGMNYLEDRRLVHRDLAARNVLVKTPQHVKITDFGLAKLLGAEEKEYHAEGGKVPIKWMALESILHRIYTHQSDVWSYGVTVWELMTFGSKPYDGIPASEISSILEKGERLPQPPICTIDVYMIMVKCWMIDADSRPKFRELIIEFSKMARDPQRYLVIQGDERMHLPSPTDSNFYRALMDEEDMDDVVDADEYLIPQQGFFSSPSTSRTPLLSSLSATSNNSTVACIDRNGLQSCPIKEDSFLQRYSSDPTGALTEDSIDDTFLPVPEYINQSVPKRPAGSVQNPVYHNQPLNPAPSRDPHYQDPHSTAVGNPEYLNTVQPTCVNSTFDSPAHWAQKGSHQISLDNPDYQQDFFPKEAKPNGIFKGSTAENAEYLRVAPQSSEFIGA
T2 sequence (P00533 25-1210 T790M/L858R): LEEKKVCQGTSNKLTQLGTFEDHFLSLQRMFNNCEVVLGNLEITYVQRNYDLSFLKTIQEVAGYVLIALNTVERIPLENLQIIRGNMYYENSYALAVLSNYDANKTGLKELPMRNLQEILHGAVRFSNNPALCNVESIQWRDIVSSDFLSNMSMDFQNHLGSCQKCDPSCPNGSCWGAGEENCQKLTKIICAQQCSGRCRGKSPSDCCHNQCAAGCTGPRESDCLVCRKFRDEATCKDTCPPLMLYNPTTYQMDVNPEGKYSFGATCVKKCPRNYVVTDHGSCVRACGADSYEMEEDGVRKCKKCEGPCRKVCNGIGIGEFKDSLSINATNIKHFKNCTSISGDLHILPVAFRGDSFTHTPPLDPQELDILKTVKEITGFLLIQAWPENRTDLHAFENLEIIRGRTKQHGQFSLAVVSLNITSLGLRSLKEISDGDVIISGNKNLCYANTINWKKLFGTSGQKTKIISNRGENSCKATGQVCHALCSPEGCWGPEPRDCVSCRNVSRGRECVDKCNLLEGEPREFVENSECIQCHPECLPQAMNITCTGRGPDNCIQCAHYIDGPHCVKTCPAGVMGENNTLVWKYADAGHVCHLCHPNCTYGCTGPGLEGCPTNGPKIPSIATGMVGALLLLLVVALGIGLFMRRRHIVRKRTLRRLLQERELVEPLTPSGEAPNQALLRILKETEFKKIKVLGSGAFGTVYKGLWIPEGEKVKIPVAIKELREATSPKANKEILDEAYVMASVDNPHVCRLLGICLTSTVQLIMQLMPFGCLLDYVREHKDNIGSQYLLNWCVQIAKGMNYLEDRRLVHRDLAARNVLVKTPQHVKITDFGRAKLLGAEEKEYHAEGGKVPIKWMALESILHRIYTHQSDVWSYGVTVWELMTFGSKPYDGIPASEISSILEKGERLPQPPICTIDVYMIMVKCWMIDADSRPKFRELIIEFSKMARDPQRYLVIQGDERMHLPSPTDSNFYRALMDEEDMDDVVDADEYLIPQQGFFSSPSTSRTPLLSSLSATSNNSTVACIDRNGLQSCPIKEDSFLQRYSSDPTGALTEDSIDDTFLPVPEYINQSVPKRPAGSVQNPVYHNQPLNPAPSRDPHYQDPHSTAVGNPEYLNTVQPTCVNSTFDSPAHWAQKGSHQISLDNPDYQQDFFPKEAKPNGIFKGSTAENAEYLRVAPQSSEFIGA
T1 sequence (P00533 with tags, fused parts or gaps DEL746-750): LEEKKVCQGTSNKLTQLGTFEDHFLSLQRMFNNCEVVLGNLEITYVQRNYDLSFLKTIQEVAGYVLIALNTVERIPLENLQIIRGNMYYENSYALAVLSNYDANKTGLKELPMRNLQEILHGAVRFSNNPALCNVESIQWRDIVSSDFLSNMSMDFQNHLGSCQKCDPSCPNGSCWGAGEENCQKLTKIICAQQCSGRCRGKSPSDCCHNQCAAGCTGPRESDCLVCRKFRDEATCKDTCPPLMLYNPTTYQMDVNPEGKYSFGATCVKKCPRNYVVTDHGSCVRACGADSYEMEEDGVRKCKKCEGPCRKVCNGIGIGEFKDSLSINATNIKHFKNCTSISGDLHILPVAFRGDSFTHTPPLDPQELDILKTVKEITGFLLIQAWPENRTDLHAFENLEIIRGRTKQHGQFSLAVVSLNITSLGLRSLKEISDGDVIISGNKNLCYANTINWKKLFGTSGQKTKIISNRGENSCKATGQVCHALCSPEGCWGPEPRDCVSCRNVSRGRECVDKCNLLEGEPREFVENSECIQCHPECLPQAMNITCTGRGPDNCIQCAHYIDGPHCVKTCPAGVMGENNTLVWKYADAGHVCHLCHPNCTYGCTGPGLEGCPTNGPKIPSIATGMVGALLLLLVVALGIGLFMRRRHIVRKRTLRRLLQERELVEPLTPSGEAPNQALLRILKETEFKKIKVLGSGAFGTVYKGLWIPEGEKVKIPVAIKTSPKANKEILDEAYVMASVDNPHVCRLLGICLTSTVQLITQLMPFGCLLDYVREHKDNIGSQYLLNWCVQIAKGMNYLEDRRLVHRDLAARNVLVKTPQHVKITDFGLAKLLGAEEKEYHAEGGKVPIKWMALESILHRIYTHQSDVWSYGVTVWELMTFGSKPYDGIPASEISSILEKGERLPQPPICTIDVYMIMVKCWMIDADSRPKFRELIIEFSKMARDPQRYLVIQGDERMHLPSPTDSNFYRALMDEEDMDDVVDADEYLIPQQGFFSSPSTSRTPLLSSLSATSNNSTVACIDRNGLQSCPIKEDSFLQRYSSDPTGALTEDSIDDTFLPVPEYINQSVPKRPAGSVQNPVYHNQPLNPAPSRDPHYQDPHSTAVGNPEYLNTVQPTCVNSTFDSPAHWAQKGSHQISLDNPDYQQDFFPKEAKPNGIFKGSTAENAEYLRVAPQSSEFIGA
EGFR (D746-750), sequence (P00533 with tags, fused parts or gaps DEL746-750): as above

For `CCN1Cc2c(c(OCC#N)nn2[C@@H](C)CO)/C=C/c2n[nH]c3cnc(cc23)-c2c(C)nn(C)c2O[C@@H](C)C1` [Ex. 67, {[(10S,17E)-12-ethyl-14-[(2S)-1-hydroxypropan-2-yl]-6,8,10-trimethyl-2,10,11,12,13,14-hexahydro-8H-5,3-(azenometheno)tripyrazolo[3,4-f:3′,4′-j:4″,3″-n][1,4]oxazacyclopentadecin-16-yl]oxy}acetonitrile], the IC50 was 1.08 nM on EGFR (L858R/T790M/C797S); 0.56 nM on EGFR (D746-750); 1.65 nM against EGFR (D746-750/C797S); 0.69 nM against EGFR (D770_N771insNPG); 2.98 nM in test [1]; 5.54 nM in test [2]. Besides, the IC50 in test [3] worked out at 16 nM; in the test with PC-9 cells, 1.81 nM; in the test with NCI-H1975 cells, 17.6 nM; in the test with HCC827 cells, 1.13 nM.
Turning to `CCOc1nn(CCO)c2c1/C=C/c1n[nH]c3cnc(cc13)-c1c(C)nn(C)c1OCCN(C)C2` [Ex. 68, 2-[(17E)-16-ethoxy-6,8,12-trimethyl-2,8,10,11,12,13-hexahydro-14H-5,3-(azenometheno)tripyrazolo[3,4-f:3′,4′-j:4″,3″-n][1,4]oxazacyclopentadecin-14-yl]ethan-1-ol], the IC50 on EGFR (L858R/T790M/C797S) was 0.44 nM; at EGFR (D746-750) it was 0.33 nM; against EGFR (D746-750/C797S), 1.18 nM; against EGFR (D770_N771insNPG), 0.95 nM; in test [1], 6.22 nM; in test [2], 6.39 nM. The IC50 was 21 nM in test [3], 15.4 nM in the test on PC-9 cells, 227 nM in the test with NCI-H1975 cells and 2.49 nM in the test with HCC827 cells.
`CCc1nn(CCO)c2c1/C=C/c1n[nH]c3cnc(cc13)-c1c(C)nn(C)c1O[C@@H](C)CN(C)C2` [Ex. 60]: the IC50 at EGFR (L858R/T790M/C797S) is 0.86 nM; against EGFR (D746-750), 0.54 nM; against EGFR (D746-750/C797S), 1.72 nM; against EGFR (D770_N771insNPG) it was 0.78 nM; in test [1], 2.39 nM; in test [2], 2.49 nM. Besides, the IC50 in [3] stood at 29 nM; in the test with PC-9 cells it was 5.05 nM; in the test with NCI-H1975 cells, 57.5 nM; with HCC827 cells, 1.77 nM.
Consider `Cc1nn(C)c2c1-c1cc3c(n[nH]c3c(C)n1)/C=C/c1c(OCC#N)nn(CCO)c1CN(C)C[C@H](C)O2` [Ex. 63, {[(10S,17E)-14-(2-hydroxyethyl)-6,8,10,12,20-pentamethyl-2,10,11,12,13,14-hexahydro-8H-5,3-(azenometheno)tripyrazolo[3,4-f:3,4′-j:4″,3″-n][1,4]oxazacyclopentadecin-16-yl]oxy}acetonitrile], for which the IC50 stood at 0.6 nM against EGFR (L858R/T790M/C797S); 0.36 nM against EGFR (D746-750); 1.09 nM at EGFR (D746-750/C797S); 0.39 nM against EGFR (D770_N771insNPG); 2.38 nM in test [1]; 3.31 nM in test [2]. Besides, the IC50 was 57.3 nM in [3], 13.8 nM with PC-9 cells, 9.62 nM in the test with NCI-H1975 cells and 2.7 nM with HCC827 cells.
On to `Cc1nn(C)c2c1-c1cc3c(n[nH]c3cn1)/C=C/c1c(OCC#N)nn([C@@H](C)CO)c1CN1CCC[C@@H]1CO2` [Ex. 64, {[(8aR,19E)-3-[(2S)-1-hydroxypropan-2-yl]-11,13-dimethyl-3,4,7,8,8a,9,11,17-octahydro-6H-14,16-(azenometheno)tripyrazolo[3,4-f:3′,4′-j:4″,3″-n]pyrrolo[2,1-c][1,4]oxazacyclopentadecin-1-yl]oxy}acetonitrile], for which the IC50 on EGFR (L858R/T790M/C797S) was 0.82 nM; against EGFR (D746-750), 0.41 nM; against EGFR (D746-750/C797S), 1.2 nM; against EGFR (D770_N771insNPG), 0.42 nM; in [1] it was 2.74 nM; in test [2], 2.79 nM. In addition, the half-maximal inhibitory concentration (IC50) in test [3] amounted to 29.6 nM; in the test on PC-9 cells, 5.63 nM; with NCI-H1975 cells it was 26.6 nM; in the test with HCC827 cells it was 1.02 nM.
As to `CCN1Cc2c(c(OCC#N)nn2[C@@H](C)CO)/C=C/c2n[nH]c3cnc(cc23)-c2c(C)nn(C)c2O[C@H](C)C1` [Ex. 58, {[(10R,17E)-12-ethyl-14-[(2S)-1-hydroxypropan-2-yl]-6,8,10-trimethyl-2,10,11,12,13,14-hexahydro-8H-5,3-(azenometheno)tripyrazolo[3,4-f:3′,4′-j:4″,3″-n][1,4]oxazacyclopentadecin-16-yl]oxy}acetonitrile], the IC50 on EGFR (L858R/T790M/C797S) worked out at 1.01 nM; against EGFR (D746-750) it was 0.55 nM; against EGFR (D746-750/C797S), 1.38 nM; against EGFR (D770_N771insNPG) it was 0.72 nM; in test [1] it was 1.11 nM; in test [2], 2.34 nM. Further, the IC50 in [3] was found to be 21.5 nM; in the test with PC-9 cells, 2.44 nM; in the test on NCI-H1975 cells, 14.7 nM; in the test with HCC827 cells, 0.75 nM.
Turning to `CCc1nn(CCO)c2c1/C=C/c1n[nH]c3cnc(cc13)-c1c(C)nn(C)c1O[C@@H](C)CN(CC)C2` [Ex. 62, 2-[(10S,17E)-12,16-diethyl-6,8,10-trimethyl-2,8,10,11,12,13-hexahydro-14H-5,3-(azenometheno)tripyrazolo[3,4-f:3′,4′-j:4″,3″-n][1,4]oxazacyclopentadecin-14-yl]ethan-1-ol], the IC50 was 0.74 nM at EGFR (L858R/T790M/C797S); 0.42 nM against EGFR (D746-750); 1.58 nM at EGFR (D746-750/C797S); 0.42 nM on EGFR (D770_N771insNPG); 1.13 nM in [1]; 1.54 nM in test [2]. In addition, the IC50 came out at 13.2 nM in test [3], 1.08 nM in the test with PC-9 cells, 16.9 nM with NCI-H1975 cells and 0.44 nM in the test on HCC827 cells.
As for `CCOc1nn([C@@H](C)CO)c2c1/C=C/c1n[nH]c3cnc(cc13)-c1c(C)nn(C)c1OC[C@H]1CCCN1C2` [Ex. 65, (2S)-2-[(8aR,19E)-1-ethoxy-11,13-dimethyl-7,8,8a,9,11,17-hexahydro-6H-14,16-(azenometheno)tripyrazolo[3,4-f:3′,4′-j:4″,3″-n]pyrrolo[2,1-c][1,4]oxazacyclopentadecin-3(4H)-yl]propan-1-ol], the IC50 was found to be 1.58 nM at EGFR (L858R/T790M/C797S); 0.61 nM against EGFR (D746-750); 1.61 nM against EGFR (D746-750/C797S); 0.99 nM on EGFR (D770_N771insNPG); 1.11 nM in test [1]; 1.56 nM in test [2]. The IC50 in test [3] is 15.8 nM; with PC-9 cells, 1.6 nM; in the test on NCI-H1975 cells, 5.36 nM; with HCC827 cells it was 0.63 nM.
